Results on 17 compounds are retold here after patent US11078216B2, “Bisaryl amides as NRF2 activators” (GLAXOSMITHKLINE INTELLECTUAL PROPERTY DEVELOPMENT LIMITED, priority 2016, dated 2021).

pEC50: −log10 of the molar value.

The experiment has as its system NRF2 (NQO1 activity as marker for NRF2 activation), BEAS-2B cells. The experiment is described as follows: BEAS-2B NQO1 MTT Assay. It is filed as cell-based. The note with it: Homo sapiens, EC50 of NQO1 specific activity induction, 48 hours incubation, read-out: EC50. The text has this: NAD(P)H:quinone oxidoreductase 1 (NQO1), also called DT diaphorase, is a homodimeric FAD-containing enzyme that catalyzes obligatory NAD(P)H-dependent two-electron reductions of quinones and protects cells against the toxic and neoplastic effects of free radicals and reactive oxygen species arising from one-electron reductions. The transcription of NQO1 is finely regulated by NRF2, and thus NQO1 activity is a good marker for NRF2 activation. On day one, frozen BEAS-2B cells (ATCC) are thawed in a water bath, counted, and re-suspended at a concentration of 250,000 cells/mL. Fifty microliters of cells are plated in 384 well black clear-bottomed plates. Plates are incubated at 37° C., 5% CO2 overnight. On day two, plates are centrifuged and 50 nL of compound or controls are added to the cells. Plates are then incubated at 37° C., 5% CO2 for 48 hours. On day four, medium is aspirated from the plate and crude cell lysates are made by adding 13 uL of 1× Cell Signaling Technologies lysis buffer with 1 Complete, Mini, EDTA-free Protease Inhibitor Tablet (Roche) for each 10 mL of lysis buffer. After lysis plates are incubated for 20 minutes at room temperature. Two microliters of lysate are removed for use in Cell Titer Glo assay (Promega) and MTT cocktail is prepared (Prochaska et. al. 1998) for measurement of NQO1 activity. Fifty microliters of MTT cocktail is added to each well, plate is centrifuged, and analyzed on an Envision plate reader (Perkin Elmer) using Absorbance 570 nm label for 30 minutes. Product formation is measured kinetically and the EC50 of NQO1 specific activity induction is calculated by plotting the change in absorbance (Delta OD/min) versus the log of compound concentration followed by 3-parameter fitting.
EC50s<1 nM (+++++), EC50s 1 nM-10 nM (++++), EC50s 10 nM-100 nM (+++), EC50s 100 nM-1 uM (++), EC50s 1-10 uM (+), EC50s>10 uM (−), or were not determined (ND).

One may read the pEC50 as −log10 of the EC50, conventionally taken in molar units. On to `CC[C@@H]1CN(Cc2cc([C@H](CC(=O)NCC(C)(C)O)c3ccc4c(nnn4CC)c3C)ccc2C)S(=O)(=O)c2cccnc2O1` [Example 27, (S)-3-(3-(((R)-4-Ethyl-1,1-dioxido-3,4-dihydro-2H-pyrido[2,3-b][1,4,5]oxathiazepin-2-yl)methyl)-4-methylphenyl)-3-(1-ethyl-4-methyl-1H-benzo[d][1,2,3]triazol-5-yl)-N-(2-hydroxy-2-methylpropyl)propanamide], for which the pEC50 was 5.00 to 6.00.
As to `CC[C@@H]1CN(Cc2cc([C@@H](c3ccc4c(nnn4CC)c3C)C(C)(C)NC(=O)c3cncc(C(F)(F)F)c3)ccc2C)S(=O)(=O)c2ccccc2O1` [Example 155, N-((S)-1-(3-(((R)-4-Ethyl-1,1-dioxido-3,4-dihydro-2H-benzo[b][1,4,5]oxathiazepin-2-yl)methyl)-4-methylphenyl)-1-(1-ethyl-4-methyl-1H-benzo[d][1,2,3]triazol-5-yl)-2-methylpropan-2-yl)-5-(trifluoromethyl) nicotinamide], the negative-log EC50 (pEC50) was 7.00 to 8.00.
With `CC[C@@H]1CN(Cc2cc([C@@H](c3ccc4c(nnn4CC)c3C)C(C)(C)NC(=O)c3cnc(SC)nc3)ccc2C)S(=O)(=O)c2ccccc2O1` [Example 147, N-((S)-1-(3-(((R)-4-Ethyl-1,1-dioxido-3,4-dihydro-2H-benzo[b][1,4,5]oxathiazepin-2-yl)methyl)-4-methylphenyl)-1-(1-ethyl-4-methyl-1H-benzo[d][1,2,3]triazol-5-yl)-2-methylpropan-2-yl)-2-(methylthio)pyrimidine-5-carboxamide] the figure was 7.00 to 8.00; with `CC[C@@H]1CN(Cc2cc([C@H](CC(=O)NC3CCCNC3=O)c3ccc4c(nnn4CC)c3C)ccc2C)S(=O)(=O)c2cccnc2O1` (stereo partly drawn) [Example 29, (3S)-3-(3-(((R)-4-Ethyl-1,1-dioxido-3,4-dihydro-2H-pyrido[2,3-b][1,4,5]oxathiazepin-2-yl)methyl)-4-methylphenyl)-3-(1-ethyl-4-methyl-1H-benzo[d][1,2,3]triazol-5-yl)-N-(2-oxopiperidin-3-yl)propanamide], 5.00 to 6.00; with `CC[C@@H]1CN(Cc2cc([C@H](CC(=O)Nc3cnc(NC(CO)CO)nc3)c3ccc4c(nnn4CC)c3C)ccc2C)S(=O)(=O)c2cccnc2O1` [Example 127, (S)—N-(2-((1,3-Dihydroxypropan-2-yl)amino)pyrimidin-5-yl)-3-(3-(((R)-4-ethyl-1,1-dioxido-3,4-dihydro-2H-pyrido[2,3-b][1,4,5]oxathiazepin-2-yl)methyl)-4-methylphenyl)-3-(1-ethyl-4-methyl-1H-benzo[d][1,2,3]triazol-5-yl)propanamide], 5.00 to 6.00.
With `CC[C@@H]1CN(Cc2cc([C@@H](c3ccc4c(nnn4CC)c3C)C(C)(C)C(=O)N[C@H](CC(N)=O)C(=O)O)ccc2C)S(=O)(=O)c2ccccc2O1` [Example 212, (R)-4-amino-2-((S)-3-(3-(((R)-4-ethyl-1,1-dioxido-3,4-dihydro-2H-benzo[b][1,4,5]oxathiazepin-2-yl)methyl)-4-methylphenyl)-3-(1-ethyl-4-methyl-1H-benzo[d][1,2,3]triazol-5-yl)-2,2-dimethylpropanamido)-4-oxobutanoic acid], the pEC50 is 6.00 to 7.00.
On to `CC[C@@H]1CN(Cc2cc([C@@H](c3ccc4c(nnn4CC)c3C)C(C)(C)C(=O)Nc3cnc(OCC(=O)O)nc3)ccc2C)S(=O)(=O)c2ccccc2O1` [Example 197, 2-((5-((S)-3-(3-(((R)-4-Ethyl-1,1-dioxido-3,4-dihydro-2H-benzo[b][1,4,5]oxathiazepin-2-yl)methyl)-4-methylphenyl)-3-(1-ethyl-4-methyl-1H-benzo[d][1,2,3]triazol-5-yl)-2,2-dimethylpropanamido)pyrimidin-2-yl)oxy)acetic Acid], for which the pEC50 was 7.00 to 8.00.
With `CC[C@H]1Cc2ccc(C(F)(F)F)cc2S(=O)(=O)N(Cc2cc([C@@H](c3ccc4c(nnn4CC)c3C)C(C)(C)C(N)=O)ccc2C)C1` [Example 88, (S)-3-(3-(((S)-4-ethyl-1,1-dioxido-8-(trifluoromethyl)-4,5-dihydrobenzo[f][1,2]thiazepin-2(3H)-yl)methyl)-4-methylphenyl)-3-(1-ethyl-4-methyl-1H-benzo[d][1,2,3]triazol-5-yl)-2,2-dimethylpropanamide] the figure was 8.00 to 9.00; with `CC[C@@H]1CN(Cc2cc([C@H](CC(=O)NCC(=O)NC)c3ccc4c(nnn4CC)c3C)ccc2C)S(=O)(=O)c2cccnc2O1` [Example 39, (S)-3-(3-(((R)-4-Ethyl-1,1-dioxido-3,4-dihydro-2H-pyrido[2,3-b][1,4,5]oxathiazepin-2-yl)methyl)-4-methylphenyl)-3-(1-ethyl-4-methyl-1H-benzo[d][1,2,3]triazol-5-yl)-N-(2-(methylamino)-2-oxoethyl)propanamide], 5.00 to 6.00; with `CC[C@@H]1CN(Cc2cc([C@@H](c3ccc4c(nnn4CC)c3C)C(C)(C)C(=O)Nc3cnc(C(=O)O)nc3)ccc2C)S(=O)(=O)c2ccccc2O1` [Example 195, 5-((S)-3-(3-(((R)-4-Ethyl-1,1-dioxido-3,4-dihydro-2H-benzo[b][1,4,5]oxathiazepin-2-yl)methyl)-4-methylphenyl)-3-(1-ethyl-4-methyl-1H-benzo[d][1,2,3]triazol-5-yl)-2,2-dimethylpropanamido)pyrimidine-2-carboxylic Acid], 7.00 to 8.00.
With `CCn1nnc2c(C)c([C@H](c3ccc(C)c(CN4C[C@@H](C)Cc5cc(C(F)(F)F)ccc5S4(=O)=O)c3)[C@@H](C)C(=O)Nc3cccnc3)ccc21` [Example 177, (2R,3S)-3-(1-ethyl-4-methyl-1H-benzo[d][1,2,3]triazol-5-yl)-2-methyl-3-(4-methyl-3-(((S)-4-methyl-1,1-dioxido-7-(trifluoromethyl)-4,5-dihydrobenzo[f][1,2]thiazepin-2(3H)-yl)methyl)phenyl)-N-(pyridin-3-yl)propanamide] the figure was 8.00 to 9.00.
With `CC[C@@H]1CN(Cc2cc([C@H](CC(=O)Nc3cnc(NC)nc3)c3ccc4c(nnn4CC)c3C)ccc2C)S(=O)(=O)c2cccnc2O1` [Example 126, (S)-3-(3-(((R)-4-Ethyl-1,1-dioxido-3,4-dihydro-2H-pyrido[2,3-b][1,4,5]oxathiazepin-2-yl)methyl)-4-methylphenyl)-3-(1-ethyl-4-methyl-1H-benzo[d][1,2,3]triazol-5-yl)-N-(2-(methylamino)pyrimidin-5-yl)propanamide], the pEC50 is 6.00 to 7.00.
Take `CC[C@H]1Cc2ccccc2S(=O)(=O)N(Cc2cc([C@@H](c3ccc4c(nnn4CC)c3C)C(C)(C)C(=O)Nc3nnnn3-c3ccccc3)ccc2C)C1` [Example 72, (S)-3-(3-(((S)-4-Ethyl-1,1-dioxido-4,5-dihydrobenzo[f][1,2]thiazepin-2(3H)-yl)methyl)-4-methylphenyl)-3-(1-ethyl-4-methyl-1H-benzo[d][1,2,3]triazol-5-yl)-2,2-dimethyl-N-(1-phenyl-1H-tetrazol-5-yl)propanamide]: the pEC50 was 7.00 to 8.00.
For the compound `CC[C@@H]1CN(Cc2cc([C@@H](c3ccc4c(nnn4CC)c3C)C(C)(C)C(=O)Nc3cnc(OCCO)nc3)ccc2C)S(=O)(=O)c2ccccc2O1` [Example 199, (S)-3-(3-(((R)-4-Ethyl-1,1-dioxido-3,4-dihydro-2H-benzo[b][1,4,5]oxathiazepin-2-yl)methyl)-4-methylphenyl)-3-(1-ethyl-4-methyl-1H-benzo[d][1,2,3]triazol-5-yl)-N-(2-(2-hydroxyethoxy)pyrimidin-5-yl)-2,2-dimethylpropanamide], the pEC50 was 7.00 to 8.00.
Regarding `CC[C@@H]1CN(Cc2cc([C@@H](c3ccc4c(nnn4CC)c3C)C(C)(C)C(=O)NC(C)C(=O)O)ccc2C)S(=O)(=O)c2ccccc2O1` (stereo partly drawn) [Example 205, 2-((S)-3-(3-(((R)-4-ethyl-1,1-dioxido-3,4-dihydro-2H-benzo[b][1,4,5]oxathiazepin-2-yl)methyl)-4-methylphenyl)-3-(1-ethyl-4-methyl-1H-benzo[d][1,2,3]triazol-5-yl)-2,2-dimethylpropanamido)propanoic acid], the pEC50 was 6.00 to 7.00.
As for `CC[C@H]1Cc2ccccc2S(=O)(=O)N(Cc2cc([C@@H](c3ccc4c(nnn4CC)c3C)C(C)(C)C(=O)Nc3nnnn3-c3ccccn3)ccc2C)C1` [Example 74, (S)-3-(3-(((S)-4-Ethyl-1,1-dioxido-4,5-dihydrobenzo[f][1,2]thiazepin-2(3H)-yl)methyl)-4-methylphenyl)-3-(1-ethyl-4-methyl-1H-benzo[d][1,2,3]triazol-5-yl)-2,2-dimethyl-N-(1-(pyridin-2-yl)-1H-tetrazol-5-yl)propanamide], the pEC50 was 8.00 to 9.00.
In the case of `CC[C@@H]1CN(Cc2cc([C@H](CC(=O)NC3CCCOC3)c3ccc4c(nnn4CC)c3C)ccc2C)S(=O)(=O)c2cccnc2O1` (stereo partly drawn) [Example 25, (3S)-3-(3-(((R)-4-Ethyl-1,1-dioxido-3,4-dihydro-2H-pyrido[2,3-b][1,4,5]oxathiazepin-2-yl)methyl)-4-methylphenyl)-3-(1-ethyl-4-methyl-1H-benzo[d][1,2,3]triazol-5-yl)-N-(tetrahydro-2H-pyran-3-yl)propanamide] it was 6.00 to 7.00.
